Results as given in patent publication US8598211B2, “Carboxamide compounds and their use as calpain inhibitors IV” (AbbVie Inc., priority 2009, dated 2013).

Columns and labels:
Format in all cases: biochemical
calpain-I = biological target: T1, calpain-I (Homo sapiens, UniProt P07384); assay: Calpain I kinetic fluorescence enzyme inhibition assay; conditions: calpain-I from human erythrocytes, Suc-Leu-Tyr-AMC, pH 7.3; apparent Ki from IC50 by Cheng-Prussoff
T1 construct: calpain-I—isolated from human erythrocytes; purchased Calbiochem 208713; host or cells: human erythrocytes (natural source)
T1 sequence (P07384 1-714): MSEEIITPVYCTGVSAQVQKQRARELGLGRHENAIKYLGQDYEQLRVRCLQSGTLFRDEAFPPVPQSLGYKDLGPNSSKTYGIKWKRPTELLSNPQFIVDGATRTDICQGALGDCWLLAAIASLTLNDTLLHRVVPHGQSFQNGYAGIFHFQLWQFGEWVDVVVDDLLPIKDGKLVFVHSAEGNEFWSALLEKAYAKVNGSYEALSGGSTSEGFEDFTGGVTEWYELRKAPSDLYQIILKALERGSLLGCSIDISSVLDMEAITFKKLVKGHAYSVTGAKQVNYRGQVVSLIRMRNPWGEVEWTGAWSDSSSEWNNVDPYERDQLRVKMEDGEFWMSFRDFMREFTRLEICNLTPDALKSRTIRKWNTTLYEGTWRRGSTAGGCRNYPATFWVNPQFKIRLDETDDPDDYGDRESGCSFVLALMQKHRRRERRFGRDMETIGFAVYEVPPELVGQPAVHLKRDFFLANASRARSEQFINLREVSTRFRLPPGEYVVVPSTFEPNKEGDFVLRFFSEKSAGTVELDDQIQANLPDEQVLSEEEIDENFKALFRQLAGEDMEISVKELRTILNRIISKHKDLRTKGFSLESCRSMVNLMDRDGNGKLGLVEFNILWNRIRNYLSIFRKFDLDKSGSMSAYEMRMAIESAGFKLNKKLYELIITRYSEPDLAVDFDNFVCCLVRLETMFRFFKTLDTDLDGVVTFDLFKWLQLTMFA
T1 sequence (P04632 1-268 partner): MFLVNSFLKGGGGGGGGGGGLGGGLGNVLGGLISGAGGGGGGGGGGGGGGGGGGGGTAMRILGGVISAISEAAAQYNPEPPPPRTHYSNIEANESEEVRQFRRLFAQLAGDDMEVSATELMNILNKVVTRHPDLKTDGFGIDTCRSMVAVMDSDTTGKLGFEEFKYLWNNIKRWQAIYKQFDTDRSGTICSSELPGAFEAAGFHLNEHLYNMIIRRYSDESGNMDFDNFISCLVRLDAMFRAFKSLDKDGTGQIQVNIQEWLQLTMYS
Procedure: Testing for blockade of the corresponding enzymic activities was carried out by means of kinetic fluorescence assays (excitation 390 nm, emission 460 nm).
Apparent Ki values were calculated from the experimentally determined IC50 values by the Cheng-Prussoff relation assuming a reversible competitive enzyme inhibition.
20 nM calpain-I—isolated from human erythrocytes (Calbiochem #208713), 100 μM Suc-Leu-Tyr-AMC (Bachem #I-1355) as substrate in buffer with 62 mM imidazole, 0.3 mM CaCl2, 0.10% CHAPS, 0.05% BSA, 1 mM DTT at pH 7.3 and room temperature.

cathepsin B = biological target: T2, cathepsin B (Homo sapiens, UniProt P07858); assay: Cathepsin B kinetic fluorescence enzyme inhibition assay; conditions: selectivity ratio versus calpain
T2 construct: cathepsin B—isolated from human liver; purchased Calbiochem 219362; host or cells: human liver (natural source)
Procedure: 0.25 nM cathepsin B—isolated from human liver (Calbiochem #219362), 100 μM Z-Phe-Arg-AMC (Bachem #I-1160) as substrate 50 mM MES, 2 mM EDTA, 0.05% Brij 35, 2.5 mM L-cysteine, pH 6.0, room temperature.

cathepsin K = biological target: T3, cathepsin K (Homo sapiens, UniProt P43235); assay: Cathepsin K kinetic fluorescence enzyme inhibition assay; conditions: selectivity ratio versus calpain
T3 construct: purchased Calbiochem 342001; host or cells: E. coli
T3 sequence (P43235 115-329): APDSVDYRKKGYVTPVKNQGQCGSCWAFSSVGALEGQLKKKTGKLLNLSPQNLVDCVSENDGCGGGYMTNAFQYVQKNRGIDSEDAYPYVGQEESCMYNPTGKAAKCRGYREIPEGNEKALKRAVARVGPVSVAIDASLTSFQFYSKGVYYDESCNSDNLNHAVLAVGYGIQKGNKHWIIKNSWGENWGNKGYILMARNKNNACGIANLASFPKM
Procedure: 3 nM cathepsin K—activated from recombinant human procathepsin K from E. coli (Calbiochem #342001), 10 μM Z-Gly-Pro-Arg-AMC (Biomol #P-142) as substrate in 50 mM MES, 2 mM EDTA, 0.05% Brij 35, 2.5 mM L-cysteine, pH 6.0, room temperature.

cathepsin L = biological target: T4, cathepsin L (Homo sapiens, UniProt P07711); assay: Cathepsin L kinetic fluorescence enzyme inhibition assay; conditions: selectivity ratio versus calpain
T4 construct: cathepsin L—isolated from human liver; purchased Calbiochem 219402; host or cells: human liver (natural source)
T4 sequence (P07711 114-333): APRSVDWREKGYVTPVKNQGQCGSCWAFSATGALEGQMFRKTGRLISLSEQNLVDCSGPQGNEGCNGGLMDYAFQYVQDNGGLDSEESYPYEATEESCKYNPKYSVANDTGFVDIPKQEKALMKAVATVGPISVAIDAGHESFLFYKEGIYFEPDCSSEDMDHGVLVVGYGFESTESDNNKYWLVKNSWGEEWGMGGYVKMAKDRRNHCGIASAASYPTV
Procedure: 1 nM cathepsin L—isolated from human liver (Calbiochem #219402), 2 μM Z-Phe-Arg-AMC (Bachem #I-1160) as substrate in 50 mM MES, 2 mM EDTA, 0.05% Brij 35, 2.5 mM L-cysteine, pH 6.0, room temperature.

cathepsin S = biological target: T5, cathepsin S (Homo sapiens, UniProt P25774); assay: Cathepsin S kinetic fluorescence enzyme inhibition assay; conditions: selectivity ratio versus calpain
T5 construct: purchased Calbiochem 219343; host or cells: E. coli
T5 sequence (P25774 115-331): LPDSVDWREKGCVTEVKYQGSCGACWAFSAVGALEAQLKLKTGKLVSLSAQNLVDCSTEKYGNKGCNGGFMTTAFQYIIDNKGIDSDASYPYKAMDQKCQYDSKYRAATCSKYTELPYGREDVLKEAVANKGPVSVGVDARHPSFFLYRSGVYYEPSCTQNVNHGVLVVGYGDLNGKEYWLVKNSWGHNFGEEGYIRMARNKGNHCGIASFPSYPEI
Procedure: 0.5 nM recombinant human cathepsin S from E. coli (Calbiochem #219343), 20 μM Z-Val-Val-Arg-AMC (Bachem #I-1540) as substrate in 50 mM MES, 2 mM EDTA, 0.05% Brij 35, 2.5 mM L-cysteine, pH 6.0, room temperature.

| SMILES | Ki (calpain-I) [nM] | Sel cat. B (Ki(cathepsin B)/Ki(calpain) ratio) (cathepsin B) | Sel cat. K (Ki(cathepsin K)/Ki(calpain) ratio) (cathepsin K) | Sel cat. L (Ki(cathepsin L)/Ki(calpain) ratio) (cathepsin L) | Sel cat. S (Ki(cathepsin S)/Ki(calpain) ratio) (cathepsin S) |
| --- | --- | --- | --- | --- | --- |
| O=C(NC1CC1)C(=O)C(Cc1ccccc1)NC(=O)[C@H]1CCC(=O)N1Cc1ccccc1F (mixture of isomers) [Example 30, (2R)—N-(4-(cyclopropylamino)-3,4-dioxo-1-phenylbutan-2-yl)-1-(2-fluorobenzyl)-5-oxopyrrolidine-2-carboxamide] | 400 to 800 | ++ (9<Ki(cathepsin B)/Ki(calpain)≦30) | +++ (Ki(cathepsin K)/Ki(calpain) ratio of >30) | ++ (10<Ki(cathepsin L)/Ki(calpain)≦50) | +++ (Ki(cathepsin S)/Ki(calpain) ratio of >50) |
| O=C(NCCc1ccccc1)C(=O)C(Cc1ccccc1)NC(=O)c1cccnc1-n1ccc(-c2ccc(F)cc2)n1 (stereo not drawn) [Example 1, N-{3,4-Dioxo-1-phenyl-4-[(2-phenylethyl)amino]butan-2-yl}-2-[3-(4-fluorophenyl)-1H-pyrazol-1-yl]pyridine-3-carboxamide] | 250 to 400 | ++ (9<Ki(cathepsin B)/Ki(calpain)≦30) | ++ (9<Ki(cathepsin K)/Ki(calpain)≦30) | ++ (10<Ki(cathepsin L)/Ki(calpain)≦50) | ++ (10<Ki(cathepsin S)/Ki(calpain)≦50) |
| O=C(NC1CC1)C(=O)C(Cc1ccccc1)NC(=O)c1cccnc1-n1ccc(-c2cccc(N3CCOCC3)c2)n1 (stereo not drawn) [Example 26, N-[4-(Cyclopropylamino)-3,4-dioxo-1-phenyl-2-butanyl]-2-{3-[3-(4-morpholinyl)phenyl]-1H-pyrazol-1-yl}nicotinamide] | 400 to 800 | + (5≦Ki(cathepsin B)/Ki(calpain)≦9) | ++ (9<Ki(cathepsin K)/Ki(calpain)≦30) | ++ (10<Ki(cathepsin L)/Ki(calpain)≦50) | ++ (10<Ki(cathepsin S)/Ki(calpain)≦50) |
| COc1ccc(CC(NC(=O)c2cccnc2-n2ccc(-c3ccccc3)n2)C(=O)C(=O)NC2CC2)cc1 (stereo not drawn) [Example 22, N-[4-(Cyclopropylamino)-1-(4-methoxyphenyl)-3,4-dioxo-2-butanyl]-2-(3-phenyl-1H-pyrazol-1-yl)nicotinamide] | 250 to 400 | ++ (9<Ki(cathepsin B)/Ki(calpain)≦30) | ++ (9<Ki(cathepsin K)/Ki(calpain)≦30) | ++ (10<Ki(cathepsin L)/Ki(calpain)≦50) | ++ (10<Ki(cathepsin S)/Ki(calpain)≦50) |
| O=C(NCCc1ccccn1)C(=O)C(Cc1ccccc1)NC(=O)c1cccnc1-n1ccc(-c2ccc(F)cc2)n1 (stereo not drawn) [Example 3, N-(3,4-Dioxo-1-phenyl-4-{[2-(pyridin-2-yl)ethyl]amino}butan-2-yl)-2-[3-(4-fluorophenyl)-1H-pyrazol-1-yl]pyridine-3-carboxamide] | 250 to 400 | ++ (9<Ki(cathepsin B)/Ki(calpain)≦30) | ++ (9<Ki(cathepsin K)/Ki(calpain)≦30) | ++ (10<Ki(cathepsin L)/Ki(calpain)≦50) | ++ (10<Ki(cathepsin S)/Ki(calpain)≦50) |
| O=C(NCc1nc2ccccc2[nH]1)C(=O)C(Cc1ccccc1)NC(=O)c1cccnc1-n1ccc(-c2ccccc2)n1 (stereo not drawn) [Example 20, N-{4-[(1H-Benzimidazol-2-ylmethyl)amino]-3,4-dioxo-1-phenyl-2-butanyl}-2-(3-phenyl-1H-pyrazol-1-yl)nicotinamide] | 800 to 1000 | ++ (9<Ki(cathepsin B)/Ki(calpain)≦30) | ++ (9<Ki(cathepsin K)/Ki(calpain)≦30) | ++ (10<Ki(cathepsin L)/Ki(calpain)≦50) | ++ (10<Ki(cathepsin S)/Ki(calpain)≦50) |
